From publication PMC7037682, “Herb–Drug Interaction of Red Ginseng Extract and Ginsenoside Rc with Valsartan in Rats” (Molecules, 2020)
Each block holds one compound with its values, some of them ahead of it.

Legend:
OATP1B3 = conditions: cited from earlier work
OATP1B1 [1] = conditions: cited from earlier work
CYP2C9 = test system: CYP2C9; design: method as in PMID 30078466; conditions: cited from earlier work
OATP1B1 [2] = biological target: T1, OATP1B1 (Homo sapiens, UniProt Q9Y6L6); assay: Inhibition of OATP1B1-mediated valsartan uptake in HEK293-OATP1B1 cells; type: cell-based; design: host or cells: HEK293; conditions: 5 μM valsartan, 5 min
T1 sequence (Q9Y6L6 1-691): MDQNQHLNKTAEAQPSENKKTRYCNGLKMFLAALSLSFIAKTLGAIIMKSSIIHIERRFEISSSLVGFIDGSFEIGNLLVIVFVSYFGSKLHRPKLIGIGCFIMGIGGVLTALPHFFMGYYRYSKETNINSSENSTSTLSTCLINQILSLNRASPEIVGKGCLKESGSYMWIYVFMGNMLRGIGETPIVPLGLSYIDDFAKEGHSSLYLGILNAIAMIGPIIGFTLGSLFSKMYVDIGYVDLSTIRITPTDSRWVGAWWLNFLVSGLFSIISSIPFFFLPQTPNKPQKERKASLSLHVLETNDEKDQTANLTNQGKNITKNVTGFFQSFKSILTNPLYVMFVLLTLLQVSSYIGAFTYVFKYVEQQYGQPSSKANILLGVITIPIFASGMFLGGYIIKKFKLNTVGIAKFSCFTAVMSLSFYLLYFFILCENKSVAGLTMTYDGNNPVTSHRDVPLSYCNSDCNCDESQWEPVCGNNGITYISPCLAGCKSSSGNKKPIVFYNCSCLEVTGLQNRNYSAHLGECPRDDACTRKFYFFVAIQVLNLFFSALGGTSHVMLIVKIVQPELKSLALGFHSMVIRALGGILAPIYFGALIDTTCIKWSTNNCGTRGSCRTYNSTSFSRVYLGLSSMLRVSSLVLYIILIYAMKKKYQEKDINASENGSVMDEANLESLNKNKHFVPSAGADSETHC
Protocol: Transporter mediated uptake of probe substrates or valsartan was calculated by subtracting the uptake rate of probe substrates or valsartan into HEK293-mock cells from that into HEK293 cells expressing respective transporters.

UGT1A3 = test system: UGT1A3; design: method as in PMID 27462006; conditions: cited from earlier work
[3] = Plasma and liver distribution of Rc in rats after iv injection; type: in vivo, rat
Protocol: The rats were injected with Rc solution (3 mg/mL/kg, dissolved in saline) via the tail vein. Blood samples were collected from the abdominal artery, and the liver tissue was immediately excised, gently washed with ice-cold saline, and weighed after the rats were euthanized at 2, 12, and 48 h after intravenous injection of Rc. The blood samples were centrifuged (16,000× g, 10 min, 4 °C) and the liver tissue samples were homogenized with four volumes of saline. Aliquots (50 μL each) of plasma and liver homogenates were stored at −80 °C until the analysis of the ginsenoside Rc.

[4] = Plasma pharmacokinetics of Rc in rats after repeated iv injection; type: in vivo; conditions: rat plasma, Rc 3 mg/kg/day iv for 5 days
Protocol: The rats were randomly divided into the control and Rc groups. The Rc group was injected with Rc solution (3 mg/mL/kg, dissolved in saline) intravenously via the tail vein for 5 consecutive days. The control group received saline (1 mL/kg) for 5 consecutive days via the tail vein. After 1 h following the last Rc treatment, valsartan was injected intravenously via the femoral vein at 1 mg/kg.

UGT2B7 = test system: UGT2B7; design: method as in PMID 27462006; conditions: cited from earlier work

IC50 (OATP1B1 [2]): 24.1 µM
Compound: CC(C)=CCC[C@](C)(O[C@@H]1O[C@H](CO[C@@H]2O[C@H](CO)[C@@H](O)[C@H](O)[C@H]2O)[C@@H](O)[C@H](O)[C@H]1O)[C@H]1CC[C@]2(C)[C@@H]1[C@H](O)C[C@@H]1[C@@]3(C)CC[C@H](O[C@@H]4O[C@H](CO)[C@@H](O)[C@H](O)[C@H]4O[C@@H]4O[C@H](CO)[C@@H](O)[C@H](O)[C@H]4O)C(C)(C)[C@@H]3CC[C@]12C [Rb1, ginsenoside Rb1]
IC50 (OATP1B3): 4.8 µM
IC50 (OATP1B1 [1]): 33.2 µM
IC50 (CYP2C9): 2.4 µM

Compound: CC(C)=CCC[C@](C)(O)[C@H]1CC[C@]2(C)[C@@H]1[C@H](O)C[C@@H]1[C@@]3(C)CC[C@H](O[C@@H]4O[C@H](CO)[C@@H](O)[C@H](O)[C@H]4O)C(C)(C)[C@@H]3CC[C@]12C [Rh2, ginsenoside Rh2]
IC50 (UGT1A3): 37.9 µM

free Rc concentration in rat liver ([3]; estimated from concentration and protein binding): 0.07 to 0.14 µM
Kp ([3]; rat, liver (versus plasma), rats, Rc 3 mg/kg iv, 2, 12 and 48 h, read-out: liver-to-plasma concentration ratio): 0.13 to 0.2
IC50 (OATP1B1 [2]): 13.6 µM
AUC(0-inf) [4]: 1060 ± 325 µM·h
C0 [4]: 34 ± 5.22 µM
MRT [4]: 38.5 ± 5.11 h
half-life [4]: 27.5 ± 4.26 h
AUC(0-t) ([4]; read-out: AUC24h): 749 ± 185 µM·h
Compound: CC(C)=CCC[C@](C)(O[C@@H]1O[C@H](CO[C@@H]2O[C@@H](CO)[C@H](O)[C@H]2O)[C@@H](O)[C@H](O)[C@H]1O)[C@H]1CC[C@]2(C)[C@@H]1[C@H](O)C[C@@H]1[C@@]3(C)CC[C@H](O[C@@H]4O[C@H](CO)[C@@H](O)[C@H](O)[C@H]4O[C@@H]4O[C@H](CO)[C@@H](O)[C@H](O)[C@H]4O)C(C)(C)[C@@H]3CC[C@]12C [Rc, ginsenoside Rc]

IC50 (OATP1B1 [2]): 8.8 µM
Compound: CC(C)=CCC[C@](C)(O[C@@H]1O[C@H](CO[C@@H]2OC[C@H](O)[C@H](O)[C@H]2O)[C@@H](O)[C@H](O)[C@H]1O)[C@H]1CC[C@]2(C)[C@@H]1[C@H](O)C[C@@H]1[C@@]3(C)CC[C@H](O[C@@H]4O[C@H](CO)[C@@H](O)[C@H](O)[C@H]4O[C@@H]4O[C@H](CO)[C@@H](O)[C@H](O)[C@H]4O)C(C)(C)[C@@H]3CC[C@]12C [Rb2, ginsenoside Rb2]

Compound: CC(C)=CCC[C@](C)(O)[C@H]1CC[C@]2(C)[C@@H]1[C@H](O)C[C@@H]1[C@@]3(C)CC[C@H](O[C@@H]4O[C@H](CO)[C@@H](O)[C@H](O)[C@H]4O[C@@H]4O[C@H](CO)[C@@H](O)[C@H](O)[C@H]4O)C(C)(C)[C@@H]3CC[C@]12C [Rg3, ginsenoside Rg3]
IC50 (UGT2B7): 23.1 µM
IC50 (UGT1A3): 20.9 µM
